From paper PMC9655037, “Alternation of Organ-Specific Exposure in LPS-Induced Pneumonia Mice after the Inhalation of Tetrandrine Is Governed by Metabolizing Enzyme Suppression and Lysosomal Trapping” (International Journal of Molecular Sciences, 2022)
Where two headings read alike, the source gives them in different places.

Experiments:
[1] = tested on: HEK293-MOCK cells; assay: Uptake by MOCK (empty vector) HEK293 cells; details: TET 5 μM, 5 min
Procedure: (§1) Expressing OATP1B1/OATP1B3 or MOCK HEK293 cells were utilized to evaluate whether TET is a substrate of these two SLC transporters. Cell culture was performed as mentioned above. Cells were seeded on 96-well plates at the density of 0.8 × 10^5 cells/well. The culture medium was replaced with a medium containing 5 mM sodium butyrate for 24 h before the transport study to enhance the expression of transporters. For the transport assay, the DMEM media were removed and the cells were washed with pre-warmed Krebs–Henseleit buffer twice (0.1 mL/well). The second washing buffer was kept in the wells and the plate was incubated at 37 °C for 5 min before the uptake assay was initiated. […] The incubation solution was removed and the cells were washed with ice-cold transportation buffer three times (0.1 mL/well). A total of 0.1 mL pure water was added to each well to lyse the cells by repeated freezing and thawing (−196 °C–37 °C, three times). The cell lysate was collected and stored at −40 °C for LC-MS/MS analysis and protein measurement.
(§2) In the uptake study of TET by OATP1B1 and OATP1B3 expressing the HEK293 cell line, the uptake clearance (U) of the substrate was calculated according to Equation (5), the transporter-mediated uptake ratio (UR) was calculated by dividing the uptake clearance from transporter-expressing cells to that from the mock cells according to Equation (6), and the inhibition ratio (IR) was calculated according to Equation (7), where p represents the protein content and T is the duration of the incubation time. (5) U=Clysate/p×T (6) UR=U/UMOCK (7) IR=(1−Uwith inhibitor−Umock with inhibitor/Uwithout inhibitor−Umock without inhibitor)×100

[2] = Pharmacokinetics of TET in blood after a single i.v. administration in normal and LPS-induced ALI mice; details: male, BALB/c, mouse, in vivo, 5 mg/kg; for AUC(0-inf) / AUC(0-t) / C0 / half-life / clearance / MRT last / Vd: iv, 5 mg/kg i.v., blood; for clearance: read-out: CL (in vivo CLblood) (converted); for MRT last: read-out: MRT(0-t)
Description: Twelve male BALB/c mice were randomly divided into two groups (n = 6 for each group). […]

[3] = In vitro experiments for fup, fu,mic and Rb/p used in the well-stirred model; type: in vitro ADME
Procedure: (3) CLint,scaled=CLint,app×45mg microsomes/g liver×g liver/kg body weight (4) CLh,blood=Q×fu,p/Rb/p×CLint/fu,mic/Q+CLint·fu,p/Rb·CLint/fu,mic

[4] = Bidirectional transport in MOCK LLC-PK1 cells; details: pig
Procedure: MDR1 expressing LLC-PK1 cells or MOCK LLC-PK1 cells were utilized to identify whether P-gp is involved in the efflux transport across the membrane barrier. Cells were cultured as described above. Cells were seeded at a density of 2 × 10^4 in Millicell® 24-well cell culture plates with a 6.5 mm insert (0.4 µm polycarbonate membrane) from Corning (Kennebunk, ME, USA) 7 days before the experiments. On the day of the experiment, transepithelial electrical resistance (TEER) was measured to assess monolayer integrity. After washing the cells twice with HBSS, transport experiments in either the apical-to-basolateral direction (A-B) or the basolateral-to-apical direction (B-A) were conducted. […] After incubating the plates at 37 °C for 2 h, samples from the receiving and donor wells (50 μL) were taken simultaneously. All the samples were stored at −40 °C for LC-MS/MS analysis.
In the bidirectional transport study in LLC-PK1 cells, the following equations were used to calculate Papp values and the MDR1 efflux ratio.

[5] = target: T1, OATP1B3 (Homo sapiens, UniProt Q9NPD5); assay: Uptake by OATP1B3-expressing HEK293 cells; details: human, 5 min
T1 sequence (Q9NPD5 1-702): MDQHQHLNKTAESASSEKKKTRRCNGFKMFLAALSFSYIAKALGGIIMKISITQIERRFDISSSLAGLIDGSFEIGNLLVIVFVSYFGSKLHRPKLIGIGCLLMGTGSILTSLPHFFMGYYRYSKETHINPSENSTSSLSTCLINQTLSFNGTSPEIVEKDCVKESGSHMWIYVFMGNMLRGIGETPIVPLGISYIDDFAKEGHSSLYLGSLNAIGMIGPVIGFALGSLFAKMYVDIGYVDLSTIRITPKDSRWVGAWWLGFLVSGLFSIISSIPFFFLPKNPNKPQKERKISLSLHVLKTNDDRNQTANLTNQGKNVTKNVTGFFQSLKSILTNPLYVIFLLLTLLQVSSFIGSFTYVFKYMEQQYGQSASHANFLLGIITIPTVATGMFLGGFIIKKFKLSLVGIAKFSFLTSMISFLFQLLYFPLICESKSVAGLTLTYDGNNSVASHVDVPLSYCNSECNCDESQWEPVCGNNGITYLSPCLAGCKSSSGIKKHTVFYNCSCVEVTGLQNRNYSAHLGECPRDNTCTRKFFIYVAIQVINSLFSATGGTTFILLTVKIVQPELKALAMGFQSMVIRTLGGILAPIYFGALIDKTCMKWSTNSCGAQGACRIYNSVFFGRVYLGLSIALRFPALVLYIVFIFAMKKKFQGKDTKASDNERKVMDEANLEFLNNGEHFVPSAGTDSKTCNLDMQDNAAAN
Procedure: as §1, §2

SMILES: COc1ccc2cc1Oc1ccc(cc1)C[C@H]1c3cc(c(OC)cc3CCN1C)Oc1c(OC)c(OC)cc3c1[C@H](C2)N(C)CC3 [TET, Tetrandrine]
- Uptake Clearance ([1]; MOCK (OATP1B1 set)): 131 ± 11.3 nM/min/mg Protein
- Uptake Clearance ([1]; MOCK (OATP1B3 set)): 126 ± 10.9 nM/min/mg Protein
- Uptake Clearance ([1]; MOCK+RIF (OATP1B1 set)): 117 ± 12.8 nM/min/mg Protein
- Uptake Clearance ([1]; MOCK+RIF (OATP1B3 set)): 119 ± 8.03 nM/min/mg Protein
- increased Vz, LPS-treated vs normal mice [2]: ~ 134%
- AUC(0-inf) ([2]; LPS-treated mice): 65700 ± 17500 ng·h/mL
- AUC(0-t) ([2]; LPS-treated mice): 44100 ± 8460 ng·h/mL
- C0 ([2]; LPS-treated mice): 2300 ± 935 ng/mL
- half-life ([2]; LPS-treated mice): 93.2 ± 26.4 h
- clearance ([2]; LPS-treated mice): 1.35 mL/min/kg
- MRT last ([2]; LPS-treated mice): 137 ± 40.4 h
- Vd ([2]; LPS-treated mice, read-out: Vss): 10.5 ± 1.77 L/kg
- Vd ([2]; LPS-treated mice, read-out: Vz): 10.3 ± 1.75 L/kg
- AUC(0-inf) ([2]; normal mice): 29500 ± 3790 ng·h/mL
- AUC(0-t) ([2]; normal mice): 26300 ± 3420 ng·h/mL
- C0 ([2]; normal mice): 2270 ± 270 ng/mL
- half-life ([2]; normal mice): 30.7 ± 5.21 h
- clearance ([2]; normal mice): 2.87 mL/min/kg
- MRT last ([2]; normal mice): 72.7 ± 6.4 h
- Vd ([2]; normal mice, read-out: Vss): 7.71 ± 2.01 L/kg
- Vd ([2]; normal mice, read-out: Vz): 12.5 ± 1.63 L/kg
- Rb/p [3]: 2.39
- fup [3]: 0.01
- fraction unbound ([3]; obtained from in vitro experiments): 0.18
- Papp A→B at 2 h [4]: 1.22 ± 0.07 ×10⁻⁶ cm/s
- Papp B→A at 2 h [4]: 3.83 ± 0.12 ×10⁻⁶ cm/s
- efflux ratio at 2 h ([4]; LLC-PK1): 3.13
- Inhibition Ratio ([5]; 5 µM): 20.6
- Uptake Clearance ([5]; 5 µM): 120 ± 8.61 nM/min/mg Protein
- Uptake Ratio ([5]; 5 µM): 1.01
- Uptake Clearance ([5]; 5 μM): 151 ± 25.5 nM/min/mg Protein
